Experimental data: ChEMBL document CHEMBL2203064, “Inhibitors of the acetyltransferase domain of N-acetylglucosamine-1-phosphate-uridylyltransferase/glucosamine-1-phosphate-acetyltransferase (GlmU). Part 2: Optimization of physical properties leading to antibacterial aryl sulfonamides” (Bioorg Med Chem Lett, 2012)
Values after ≈ are worked out from the molar mass of the structure shown. Active and inactive are the calls of the source. No cut-off for these calls is given here.

Key:
[1] = Inhibition of Streptococcus pneumoniae GlmU
[2] = Inhibition of Haemophilus influenzae GlmU
Haemophilus influenzae [3] = test: Antibacterial activity against acrB efflux-pump deficient mutant of Haemophilus influenzae; type: functional
[4] = Inhibition of Escherichia coli GlmU
Haemophilus influenzae [5] = test: Antibacterial activity against acrB efflux-pump deficient mutant of Haemophilus influenzae assessed as inhibition of cell-wall biosynthesis; type: functional, organism-based
physchem = settings: buffer, pH 7.4
Description: Lipophilicity, log D of the compound at pH 7.4

Haemophilus influenzae [6] = test: Antibacterial activity against acrB efflux-pump deficient mutant of Haemophilus influenzae assessed as inhibition of lipid biosynthesis; type: functional, organism-based
Haemophilus influenzae [7] = test: Antibacterial activity against acrB efflux-pump deficient mutant of Haemophilus influenzae assessed as inhibition of radio-labeled biosynthetic precursor incorporation; type: functional, organism-based

Compound | IC50 [1] | IC50 [2] | MIC (Haemophilus influenzae [3]) | IC50 [4] | inhibition (Haemophilus influenzae [5]) | logD (physchem) | inhibition (Haemophilus influenzae [6]) | inhibition (Haemophilus influenzae [7])
COc1cc(OC)c(S(=O)(=O)N2Cc3ccccc3Oc3ccccc32)cc1NC(=O)CCC(=O)O | 55000 nM | 80 nM | 32 µg/mL (≈ 62.4 µM) | 30 nM |  |  |  | 
COc1cc(O)c(S(=O)(=O)N2c3ccccc3CCC2C)cc1NC(=O)CCC(=O)O (stereo unspecified) | 46600 nM | 280 nM | 32 µg/mL (≈ 71.3 µM) | 50 nM | Active | -0.27 | Active | Active
COc1cc(OC)c(S(=O)(=O)N2c3ccccc3CCC2C)cc1NC(=O)Cc1ccnc(C#N)c1 (stereo unspecified) | 10000 nM | 670 nM | > 128 µg/mL | 680 nM |  |  |  | 
COc1cc(OC)c(S(=O)(=O)N(c2ccc(C)cc2)c2ccc(C)cc2)cc1NC(=O)CCC(=O)O | 48000 nM | 320 nM | 32 µg/mL (≈ 62.4 µM) | 40 nM |  |  |  | 
COc1cc(OC)c(S(=O)(=O)N2c3ccccc3Sc3ccccc32)cc1NC(=O)CCC(=O)O | 36900 nM | 370 nM | > 64 µg/mL | 90 nM |  | -0.31 |  | 
COc1cc(OC)c(S(=O)(=O)N(c2ccccc2)c2ccc(N)cc2)cc1NC(=O)CCC(=O)O | 40200 nM | 400 nM | > 64 µg/mL | 20 nM |  |  |  | 
COc1cc(OC)c(S(=O)(=O)N(c2ccccc2)c2ccc3ccccc3c2)cc1NC(=O)CCC(=O)O | 8400 nM | 830 nM | 32 µg/mL (≈ 59.9 µM) | 40 nM |  |  |  | 
COc1cc(OC)c(S(=O)(=O)N2c3ccccc3Oc3ccccc32)cc1NC(=O)Cc1ccnc(F)c1 | 9900 nM | 30 nM | > 128 µg/mL | 90 nM |  | 3.37 |  | 
COc1cc(OC)c(S(=O)(=O)N2c3ccccc3Oc3ccccc32)cc1NC(=O)/C=C/C(=O)O | 21500 nM | 20 nM | 64 µg/mL (≈ 129 µM) | 10 nM |  | -0.71 |  | 
COc1cc(OC)c(S(=O)(=O)N2c3ccccc3CCC2C)cc1NC(=O)Cc1ccnc(F)c1 (stereo unspecified) | 9000 nM | 520 nM | > 128 µg/mL | 800 nM |  | 2.49 |  | 
COc1cc(OC)c(S(=O)(=O)N2c3ccccc3Oc3ccccc32)cc1NC(=O)Cc1ccncc1 | 32000 nM | 30 nM | 64 µg/mL (≈ 124 µM) | 60 nM |  |  |  | 
COc1cc(O)c(S(=O)(=O)N2c3ccccc3CCC2C)cc1NC(=O)[C@@H]1C(C)[C@H]1C(=O)O (relative stereo) | 7840 nM | 380 nM | 128 µg/mL (≈ 270 µM) | < 480 nM |  |  |  | 
COc1cc(OC)c(S(=O)(=O)N2c3ccccc3Oc3ccccc32)cc1NC(=O)[C@@H]1C(C)[C@H]1C(=O)O (mixture of isomers) | 5300 nM | 10 nM | 32 µg/mL | 30 nM |  | 0.06 |  | 
COc1cc(OC)c(S(=O)(=O)N2c3ccccc3CCC2C)cc1NC(=O)[C@@H]1C(C)[C@H]1C(=O)O (mixture of isomers) | 5900 nM | 510 nM | 128 µg/mL | 400 nM |  | -0.39 |  | 
COc1cc(OC)c(S(=O)(=O)N(c2ccccc2)c2ccccc2)cc1NC(=O)CCC(=O)O | 25500 nM | 910 nM | > 64 µg/mL | 40 nM |  |  |  | 
COc1cc(OC)c(S(=O)(=O)N2c3ccccc3CCC2C)cc1NC(=O)CCc1nn[nH]n1 (stereo unspecified) | 24700 nM | 600 nM | > 64 µg/mL | 430 nM |  | -0.34 |  | 
COc1cc(OC)c(S(=O)(=O)N2c3ccccc3Oc3ccccc32)cc1NC(=O)CCC(=O)O | 14600 nM | 20 nM | 32 µg/mL (≈ 64.2 µM) | 10 nM | Active |  | Active | Active
COc1cc(O)c(S(=O)(=O)N2c3ccccc3Oc3ccccc32)cc1NC(=O)[C@@H]1C(C)[C@H]1C(=O)O (relative stereo) | 30300 nM | 30 nM | 32 µg/mL (≈ 62.7 µM) | 60 nM |  |  |  | 
